How the values were obtained:
[1] = Absorbance spectra (UV-vis); assay type: physicochemical
[2] = system: HCT-116 cells; assay: Cytotoxicity by MTT assay without or with NIR irradiation; assay type: cell-based, human; details: 2.5 μg/mL
Protocol: Cell viability was determined with the MTT assay and a scanning multiwell ELISA reader (Microplate Autoreader EL311, Bio-Tek Instruments Inc., Winooski, Vt., USA). The fraction of live cells was calculated by dividing the mean optical density obtained from treated cells by the mean optical density from untreated control cells.

For `CCCN1C(=CC=C2CCCC(C=CC3=[N+](CCC)c4ccccc4C3(C)C)=C2Cl)C(C)(C)c2ccccc21.[I-]` [free IR-780 iodide, IR-780 iodide], the “maximum wavelength (λmax) of absorption” value ([1]; IR-780 dye diluted in THF, IR-780 micelles in PBS) was “about 795 nm”, the “λmax of absorption peak” value ([1]; aggregated in aqueous buffer, broad and blue-shifted) was 775 nm and the excess cells killed ([2]; 808 nm 0.6 W/cm^2 NIR irradiation 10 min) was 0.3%. The excess cells killed ([2]; 808 nm 0.6 W/cm^2 NIR irradiation 20 min) was 26.8%.
